Source: patent publication US8394828B2 (Janssen Pharmaceutica, NV, priority 2003, dated 2013)
“And” between values parts separate entries of the source, which are not always exact repeats. Equal entries are not always repeated. Where two headings read alike, the source gives them in different places.

Legend:
human VR1 [1] = molecular target: T1, human VR1 (Homo sapiens, UniProt Q8NER1); assay: Human VR1 [3H] RTX binding assay; details: 3H-RTX binding; for inhibition at 1 µM: compound at 1 μM; for Ki: hVR1, read-out: 3H-RTX binding assay Ki hVR1
T1 construct: expressed in transfected cells; host or cells: HEK293
T1 sequence (Q8NER1 whole entry): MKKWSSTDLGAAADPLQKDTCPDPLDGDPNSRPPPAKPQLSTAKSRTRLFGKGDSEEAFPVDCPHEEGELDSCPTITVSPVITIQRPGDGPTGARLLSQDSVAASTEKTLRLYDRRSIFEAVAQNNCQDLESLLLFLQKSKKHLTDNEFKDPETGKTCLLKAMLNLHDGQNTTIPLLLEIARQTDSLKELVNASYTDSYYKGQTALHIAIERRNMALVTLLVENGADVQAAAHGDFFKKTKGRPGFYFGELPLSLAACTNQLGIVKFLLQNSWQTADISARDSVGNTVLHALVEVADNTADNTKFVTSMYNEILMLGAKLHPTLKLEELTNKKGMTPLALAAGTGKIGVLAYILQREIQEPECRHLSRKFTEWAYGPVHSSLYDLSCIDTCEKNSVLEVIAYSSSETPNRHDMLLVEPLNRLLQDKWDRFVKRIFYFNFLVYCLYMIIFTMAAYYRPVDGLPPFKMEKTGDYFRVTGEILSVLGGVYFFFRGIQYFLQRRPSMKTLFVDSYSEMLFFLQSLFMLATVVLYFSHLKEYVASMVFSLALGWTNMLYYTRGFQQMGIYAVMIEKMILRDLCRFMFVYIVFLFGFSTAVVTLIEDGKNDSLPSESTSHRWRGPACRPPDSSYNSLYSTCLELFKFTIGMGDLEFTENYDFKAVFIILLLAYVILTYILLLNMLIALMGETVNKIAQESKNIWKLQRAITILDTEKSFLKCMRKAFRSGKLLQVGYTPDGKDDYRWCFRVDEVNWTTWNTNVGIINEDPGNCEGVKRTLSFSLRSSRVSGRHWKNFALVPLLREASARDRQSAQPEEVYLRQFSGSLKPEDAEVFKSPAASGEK
Procedure, shortened: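 Membranes from HEK293 cells transfected with human VR1, about 120 μg protein/ml, incubated with [3H] RTX in HEPES buffer pH 7.4 with 0.25 mg/mL fatty acid-free BSA for 60 min at 37° C. Bound radioactivity measured by scintillation counting. Non-specific binding defined with 200 nM unlabeled RTX.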

human VR1 [2] = molecular target: T1, human VR1; assay: Human VR1 functional assay (intracellular Ca++, FLIPR, capsaicin challenge); type: cell-based
Protocol: The functional activity of the test compounds was determined by measuring changes in intracellular calcium concentration using a Ca^++-sensitive fluorescent dye and FLIPR™ technology.
EC50 or IC50 values were determined from dose-response studies.

[3] = hVR1, capsaicin challenge, read-out: FLIPR functional assay IC50 hVR1
[4] = FLIPR functional assay IC50 hVR1 60 min, 60 min

SMILES | inhibition at 1 µM (human VR1 [1]) [%] | Ki (human VR1 [1]) | IC50 (human VR1 [2]; [3]) | IC50 (human VR1 [2]; [4]) [µM]
CCCCC1CCC(C(=O)Nc2cnc3ccccc3c2)CC1 (stereo not shown) [4-Butyl-cyclohexanecarboxylic acid quinolin-3-ylamide] | 81 | 0.124 µM | 0.17 µM | –
CN(C(=O)c1ccc(NC2CCCCC2)cc1)c1cnc2ccccc2c1 [4-Cyclohexylamino-N-methyl-N-quinolin-3-yl-benzamide] | – | 2.16 µM | 10 µM | –
O=C(Nc1cnc2ccccc2c1)c1ccc(NC2CCCC2)cc1 [4-Cyclopentylamino-N-quinolin-3-yl-benzamide] | 32 | – | 3.2 µM | –
O=C(Nc1cnc2ccccc2c1)c1ccc(N(Cc2ccccc2)Cc2ccccc2)cc1 [4-Dibenzylamino-N-quinolin-3-yl-benzamide] | 51 | 0.441 µM | – | 4.2
CCCCN(CCCC)c1ccc(C(=O)Nc2cnc3ccccc3c2)cc1 [4-Dibutylamino-N-quinolin-3-yl-benzamide] | – | 0.241 µM | 4.6 µM | 0.27
CCCCCCN(CCCCCC)c1ccc(C(=O)Nc2cnc3ccccc3c2)cc1 [4-Dihexylamino-N-quinolin-3-yl-benzamide] | 74 | 0.185 µM | – | 2.9
CCCN(CCC)c1ccc(C(=O)Nc2cnc3ccccc3c2)cc1 [4-Dipropylamino-N-quinolin-3-yl-benzamide] | – | 0.219 µM | 0.61 µM | 0.166
CCCCCNc1ccc(C(=O)Nc2cnc3ccccc3c2)cc1 [4-Pentylamino-N-quinolin-3-yl-benzamide] | – | 0.876 µM | 8.1 µM | 30
O=C(Nc1cnc2ccccc2c1)c1ccc(NCCc2ccccc2)cc1 [4-Phenethylamino-N-quinolin-3-yl-benzamide] | 31 | – | 9.2 µM | –
O=C(Nc1cnc2ccccc2c1)c1ccc(N2CCNCC2)cc1 [4-Piperazin-1-yl-N-quinolin-3-yl-benzamide] | 1 | – | 0.74 µM | –
CCCC1CCN(c2ccc(C(=O)Nc3cnc4ccccc4c3)cn2)CC1 [4-Propyl-3,4,5,6-tetrahydro-2H-{1,2′}bipyridinyl-5′-carboxylic acid quinolin-3-ylamide] | 93 | 0.117 µM | 0.49 µM | –
CC(C)(C)C1CCC(C(=O)Nc2cnc3ccccc3c2)CC1 (stereo not shown) [4-tert-Butyl-cyclohexanecarboxylic acid quinolin-3-ylamide] | 97 | 0.0649 µM | 10 µM | –
CCCCC(C)(C)c1ccc(CCCC(=O)Nc2cnc3ccccc3c2)cc1 [4-{4-(1,1-Dimethyl-pentyl)-phenyl}-N-quinolin-3-yl-butyramide] | 82 | 0.221 µM | 10 µM | –
CCC(C)(C)c1ccc(C=CCC(=O)Nc2cnc3ccccc3c2)cc1 [4-{4-(1,1-Dimethyl-propyl)-phenyl}-but-3-enoic acid quinolin-3-ylamide] | 55 | 0.137 µM | 10 µM | –
CN(CCC(C)(C)C)c1ccc(C(=O)Nc2cnc3ccccc3c2)cc1 [4-{(3,3-Dimethyl-butyl)-methyl-amino}-N-quinolin-3-yl-benzamide] | 99 | 0.0209 µM | 10 µM | 1.3
CC(C)CCN(C)c1ccc(C(=O)Nc2cnc3ccccc3c2)cc1 [4-{Methyl-(3-methyl-butyl)-amino}-N-quinolin-3-yl-benzamide] | 90 | 0.554 µM | 0.28 µM | –
CN(CCCc1ccccc1)c1ccc(C(=O)Nc2cnc3ccccc3c2)cc1 [4-{Methyl-(3-phenyl-propyl)-amino}-N-quinolin-3-yl-benzamide] | 97 | 0.0741 µM | 10 µM | 0.156

SMILES | inhibition at 1 µM (human VR1 [1]) [%] | Ki (human VR1 [1]) | IC50 (human VR1 [2]; [3]) | IC50 (human VR1 [2]; [4]) [µM]
Cc1ccc(C(C)CCN(C)c2ccc(C(=O)Nc3cnc4ccccc4c3)cc2)o1 (stereo not shown) [4-{Methyl-{3-(5-methyl-furan-2-yl)-butyl}-amino}-N-quinolin-3-yl-benzamide] | 102 | 0.0312 µM | 1.5 µM | –
O=C(Nc1cnc2ccccc2c1)c1ccc2c(c1)CCCC2 [5,6,7,8-Tetrahydro-naphthalene-2-carboxylic acid quinolin-3-ylamide] | – | 0.0623 µM | 10 µM | –
O=C(Nc1cnc2ccccc2c1)c1cc2cc(Cl)ccc2[nH]1 [5-Chloro-1H-indole-2-carboxylic acid quinolin-3-ylamide] | 36 | – | 2.8 µM | –
CCCCCc1ccc(C(=O)Nc2cnc3ccccc3c2)s1 [5-Pentyl-thiophene-2-carboxylic acid quinolin-3-ylamide] | 57 | 0.647 µM | 0.9 µM | –
O=C(Nc1cnc2ccccc2c1)c1ccc(N2CC3CCCC(C3)C2)nc1 [6-(3-Aza-bicyclo{3.3.1}non-3-yl)-N-quinolin-3-yl-nicotinamide] | 80 | 0.00986 µM | 3.7 µM | 0.279
CN(Cc1ccccc1)c1ccc(C(=O)Nc2cnc3ccccc3c2)cn1 [6-(Benzyl-methyl-amino)-N-quinolin-3-yl-nicotinamide] | 43 | – | 0.39 µM | –
CN(c1ccc(C(=O)Nc2cnc3ccccc3c2)cn1)C1CCCCC1 [6-(Cyclohexyl-methyl-amino)-N-quinolin-3-yl-nicotinamide] | 99 | 0.0359 µM and 0.218 µM | 0.3 µM and 0.245 µM | –
CCCCCCCN(C)c1ccc(C(=O)Nc2cnc3ccccc3c2)cn1 [6-(Heptyl-methyl-amino)-N-quinolin-3-yl-nicotinamide] | 90 | 0.0973 µM | 1.5 µM | –
CCCCCN(C)c1ccc(C(=O)Nc2cnc3ccccc3c2)cn1 [6-(Methyl-pentyl-amino)-N-quinolin-3-yl-nicotinamide] | 91 | 0.122 µM | 0.4 µM | –
CN(CCc1ccccc1)c1ccc(C(=O)Nc2cnc3ccccc3c2)cn1 [6-(Methyl-phenethyl-amino)-N-quinolin-3-yl-nicotinamide] | 97 | 0.243 µM | 1.2 µM | 0.54
O=C(Nc1cnc2ccccc2c1)c1ccc(N2CCCCCC2)nc1 [6-Azepan-1-yl-N-quinolin-3-yl-nicotinamide] | 44 | 0.124 µM | 0.215 µM | –
O=C(Nc1cnc2ccccc2c1)c1ccc(N2CCCCCCC2)nc1 [6-Azocan-1-yl-N-quinolin-3-yl-nicotinamide] | 102 | 0.0304 µM | 5.16 µM | 0.25
O=C(Nc1cnc2ccccc2c1)c1ccc(NC2CCCCC2)nc1 [6-Cyclohexylamino-N-quinolin-3-yl-nicotinamide] | 1 | – | 0.99 µM | –
CCCCCNc1ccc(C(=O)Nc2cnc3ccccc3c2)cn1 [6-Pentylamino-N-quinolin-3-yl-nicotinamide] | 57 | 281 µM | – | 8
O=C(CCc1ccc(C23CC4CCCC(CC(C4)C2)C3)cc1)Nc1cnc2ccccc2c1 [N-Quinolin-3-yl-3-(4-tricyclo{5.3.1.13,9}dodec-1-yl-phenyl)-propionamide] | – | 0.176 µM | – | 1.9
CC1(C)CCC(C)(C)c2cc(CCC(=O)Nc3cnc4ccccc4c3)ccc21 [N-Quinolin-3-yl-3-(5,5,8,8-tetramethyl-5,6,7,8-tetrahydro-naphthalen-2-yl)-propionamide] | – | 0.013 µM | 0.07 µM | –
